How the values were obtained:
[1] = tested on: parathyroid hormone; test: Secondary hyperparathyroidism in the 7/8 nephrectomy rat renal insufficiency model (serum PTH, serum calcium); type: in vivo, Female Sprague Dawley rats; set-up: Final Ca Levels (mg/ml): unit not given here; details: for Final Ca Levels (mg/ml) / PTH pg/ml T=1-T=0: 7 days, 7/8 nephrectomized rats, serum
From the text: • Compound of Formula Ia • 1,25(OH)2 vitamin D3 (control) • Vehicle - Miglyol 812
Female Sprague Dawley rats were anesthesized, their right kidney removed and 2-3 branches of the left renal artery were ligated to achieve 7/8 nephrectomy. They were placed on a high phosphorous diet (0.6% Ca and 0.8 phosphorous). Approximately 3-6 weeks after surgery, rats were bled to screen serum PTH levels and rats with PTH levels between 100-500 pg/ml were selected for the study.
There was a pre-bleed (T=0) and each group was dosed daily for seven days by oral gavage with either the compound of Formula Ia (10, 1 or 0.1 µg/kg/day), vehicle control or […] positive control. Compounds were predissolved in ethanol and diluted with vehicle (Miglyol 812) followed by evaporation of the ethanol.
After the last day of dosing, the animals were bled again (T=1) and sacrificed. Serum PTH assays were done with Nichols Institute Diagnostic Kit #40-2240. Serum calcium assays were done with Sigma Diagnostic Kit #587 with o-cresophthalein. Serum creatinine assays were done with Sigma Diagnostic Kit #1600-320 with ammonium molybdate.

[2] = tested on: ZR-75 cells; test: Cell proliferation assay in ZR-75 breast cancer cells (MTT); type: cell-based, human; details: for IC50: ZR-75 cells, 10 days of culture, MTT
Protocol: ZR-75 cells are human mammary carcinoma cells that are positive for estrogen receptors. The potential activity of vitamin D3 analogs against breast cancer was assessed from inhibition of proliferation of ZR-75 cells in culture.
ZR-75 cells were plated at 12,500 cells/well in 24-well plates and incubated at 37°C in 5% CO2/95% air in RPMI medium containing 10% fetal bovine serum and 2 mM glutamine. Stock solutions of vitamin D3 analogs were prepared at a concentration of 10 mM in absolute ethanol and stored at -20°C under argon. One day after plating, ZR-75 cells were refed with either control medium or medium containing varying concentrations of the vitamin D3 analog.
The IC50 value was defined as the concentration of the vitamin D3 analog corresponding to half-maximal reduction in 570 nm absorbance.

[3] = tested on: MCF-7 cells; test: Cell proliferation assay in MCF-7 breast cancer cells (MTT); type: cell-based, human; details: for IC50: MCF-7 cells, 7 days of culture, MTT
Protocol: MCF-7 cells are human mammary carcinoma cells that are positive for estrogen receptors. The potential activity of vitamin D3 analogs against breast cancer was assessed from inhibition of proliferation of MCF-7 cells in culture.
MCF-7 cells were plated at 5000 cells/well in 96-well plates and incubated at 37°C in 5% CO2/95% air in Dulbecco's Modified Eagle Medium containing 10% fetal bovine serum 700 nM insulin, 2 mM glutamine, 0.1 mM MEM non-essential amino acids and 1 mM sodium pyruvate. Stock solutions of vitamin D3 analogs were prepared at a concentration of 10 mM in absolute ethanol and stored at -20°C under argon. One day after plating, MCF-7 cells were refed with either control medium or medium containing varying concentrations of the vitamin D3 analog.
For each vitamin D3 analog, the IC50 value was determined from a graph relating the optical density at 570 nm to the concentration used. The IC50 value was defined as the concentration of the vitamin D3 analog corresponding to half-maximal reduction in 570 nm absorbance.

[4] = tested on: postmenopausal osteoporosis; details: 0.25 microgram twice daily, after 3 years, mild to moderate disease, versus elemental calcium 1000 mg/day; cited from earlier work

(1α,3β,5Z,7E)-21-(3-hydroxy-3-methylbutyl)-9,10-Secocholesta-5,7,10, (19)-triene-1,3,25-triol [Formula Ia]
Final Ca Levels (mg/ml) ([1]; 0.1 µg/kg/day po): 10.20
PTH pg/ml T=1-T=0 ([1]; 0.1 µg/kg/day po): 112 pg/mL
Final Ca Levels (mg/ml) ([1]; 1 µg/kg/day po): 10.35
PTH pg/ml T=1-T=0 ([1]; 1 µg/kg/day po): -124 pg/mL
Final Ca Levels (mg/ml) ([1]; 10 µg/kg/day po): 11.97
PTH pg/ml T=1-T=0 ([1]; 10 µg/kg/day po): -132 pg/mL
suppressing the elevated levels of parathyroid hormone ([1]; compared with 1,25(OH)2 vit. D3, summary in words): more effective than 1,25(OH)2 vit. D3
elevated calcium levels ([1]; summary in words): without causing elevated calcium levels
IC50 [2]: 0.3 nM
potency relative to 1,25-dihydroxy-cholecalciferol in inhibition of ZR-75 breast cells growth ([2]; ratio of IC50 values): more than 40 times
IC50 [3]: 0.8 nM
potency relative to 1,25-dihydroxy-cholecalciferol in inhibition of MCF-7 breast cells growth ([3]; ratio of IC50 values): approximately 50 times

C=C1/C(=C\C=C2/CCC[C@]3(C)[C@@H]([C@H](C)CCCC(C)(C)O)CC[C@@H]23)C[C@@H](O)C[C@@H]1O [1,25(OH)2 vit. D3, 1,25-dihydroxyvitamin D3, reference compound]
PTH pg/ml T=1-T=0 ([1]; 0.1 µg/kg/day po): -66 pg/mL
IC50 ([2]; Homo sapiens, ZR75, 240 h): 13 nM
IC50 ([3]; Homo sapiens, MCF7, 168 h): 40 nM
lower rate of new vertebral fractures [4]: 3 fold

From patent publication EP0980354B1, “VITAMIN D3 ANALOGS WITH BIS C-20 SIDE CHAINS” (priority 1997, dated 1998)
